Experiment [1] deals with Guinea pig ventricular myocytes. The experiment is described as follows: Action potentials and delayed afterdepolarizations in current-clamped myocytes. The conditions noted are these: for incidence of DAD-triggered APs: 100-nM isoproterenol, 1-μM ouabain without or with 1-μM CGP-37157, 1 Hz, last minute of stimulation. It counts as cell-based. The procedure: (§1) Guinea pig ventricular myocytes were isolated by enzymatic digestion as described previously. O'Rourke, B., et al., “Oscillations of membrane current and excitability driven by metabolic oscillations in heart cells,” Science, 265(5174):962-966 (Aug. 12, 1994). Cells were suspended in Dulbecco's Modification of Eagle's Medium (DMEM) supplemented with 5% fetal bovine serum, 1% penicillin/streptomycin, and 15 mmol/L HEPES, pH 7.4, and stored in a 5% CO2 incubator at 37° C.
(§2) Isolated ventricular myocytes were loaded into a heated field-stimulation chamber (Warner Instruments, Hamden, Conn.) at 37° C. on the stage of a fluorescence microscope (Nikon Eclipse TE300, Nikon Instruments, Inc., Melville, N.Y.). The myocytes were first superfused with control Tyrode's solution containing: NaCl (130 mmol/L), KCl (5 mmol/L), MgCl2 (1 mmol/L), Na-HEPES (10 mmol/L), CaCl2 (2 mmol/L), glucose (10 mmol/L), at pH 7.4. After one minute of recording in the absence of electrical stimulation in control buffer, 1-μM ouabain and 100-nM isoproterenol, with or without 1 μM CGP-37157, were added to buffer. After another five minutes of recording, myocytes were field-stimulated at 1 Hz for three minutes followed by a two-minute recording after returning to the resting state. To record [Ca^2+]m and action potentials, myocytes were whole-cell patch-clamped at 37° C. Tyrode's solution was used as external solution and the internal solution contained: NaCl (10 mmol/L), KCl (19 mmol/L), K-glutamate (125 mmol/L), MgCl2 (0.5 mmol/L), HEPES (10 mmol/L), MgATP (5 mmol/L), at pH 7.25.
In current-clamped myocytes, electrically-stimulated action potentials (APs) were recorded at 1 Hz and the probability of observing one or more delayed afterdepolarization-(DAD) triggered action potentials was determined during the last minute of stimulation.

For experiment [2] the test system is unchanged. Put plainly: Cytosolic Ca2+ ([Ca2+]c, indo-1) cycling in isolated myocytes. Type of experiment: cell-based. The conditions noted are these: ouabain without or with CGP-37157; for diastolic [Ca2+]c before stimulation / diastolic [Ca2+]c after three minutes of stimulation / increase of amplitude of [Ca2+]c transient (Δ[Ca2+]c) compared to control: 100-nM isoproterenol; for diastolic [Ca2+]c before stimulation: before 1-Hz stimulation; for diastolic [Ca2+]c after three minutes of stimulation: end of 1-Hz stimulation; for increase of amplitude of [Ca2+]c transient (Δ[Ca2+]c) compared to control: midpoint of 1-Hz stimulation, control = isoproterenol only; for spontaneous Ca2+ oscillations / discordant contractions: prolonged stimulation. The method, then: as §1
Cytosolic Ca^2+ ([Ca^2+]c), mitochondrial Ca^2+ ([Ca^2+]m), and [Na^+]i were measured with the fluorescent indicators indo-1, rhod-2, and sodium-binding benzofuran isophthalate (SBFI), respectively (Invitrogen, Carlsbad, Calif.), and mitochondrial NADH was measured as the cellular autofluorescence with 360-nm excitation/450-nm emission. Indo-1 was loaded into cell with the membrane permeable form, indo-1 AM. To minimize indo-1 loading into the mitochondrial compartment, cells were briefly incubated with indo-1 AM at room temperature for 20 min. Rhod-2 and SBFI experiments were carried out as previously described. Maack et al., supra, Liu and O'Rourke, supra. Cytoplasmic rhod-2 was eliminated by using rhod-2-free patch pipettes. Maack et al., supra, Liu and O'Rourke, supra. The ROS-sensitive fluorescent probe 5-(−6)-chloromethyl-2′,7′-dichlorohydrofluorescein diacetate (CM-H2DCFDA) was used to monitor the extent of oxidative stress, as previously described. Aon, M. A., et al., “Synchronized whole cell oscillations in mitochondrial metabolism triggered by a local release of reactive oxygen species in cardiac myocytes,” J. Biol. Chem., 278(45):44735-44744 (Nov. 7, 2003). This probe is primarily localized in the mitochondrial matrix, see Aon et al., supra, and is oxidized by hydrogen peroxide to yield fluorescent CM-DCF, thus indirectly reporting mitochondrial superoxide production.
as §2

Experiment [3] shares this test system. The experiment is described as follows: Mitochondrial Ca2+ ([Ca2+]m, rhod-2) in patch-clamped myocytes. Type of experiment: cell-based. The method, then: as §1
Cytosolic Ca^2+ ([Ca^2+]c), mitochondrial Ca^2+ ([Ca^2+]m), and [Na^+]i were measured with the fluorescent indicators indo-1, rhod-2, and sodium-binding benzofuran isophthalate (SBFI), respectively (Invitrogen, Carlsbad, Calif.), and mitochondrial NADH was measured as the cellular autofluorescence with 360-nm excitation/450-nm emission. Indo-1 was loaded into cell with the membrane permeable form, indo-1 AM. To minimize indo-1 loading into the mitochondrial compartment, cells were briefly incubated with indo-1 AM at room temperature for 20 min. Rhod-2 and SBFI experiments were carried out as previously described. Maack et al., supra, Liu and O'Rourke, supra. […]
Isolated ventricular myocytes were loaded into a heated field-stimulation chamber (Warner Instruments, Hamden, Conn.) at 37° C. on the stage of a fluorescence microscope (Nikon Eclipse TE300, Nikon Instruments, Inc., Melville, N.Y.). […]
Background: Patch clamp records ionic current or voltage across a cell membrane.

Experiment [4] has as its system Guinea pig hearts. Put plainly: Hemodynamics of isolated perfused hearts (Langendorff). The text has this: (§3) Guinea pig hearts were quickly excised under anesthesia and mounted on a modified Langendorff apparatus attached to a Powerlab system (AD Instruments, Colorado Springs, Colo.). Hearts were perfused with gassed (95/5% O2/CO2) control buffer containing: 118-mM NaCl, 24-mM NaHCO3, 1.2-mM KH2PO4, 4.75-mM KCl, 1.2-mM MgSO4, 2.0-mM CaCl2, and 10-mM glucose. A buffer-filled latex balloon (Harvard apparatus) was inserted through the mitral valve into the left ventricle. Hearts were suspended in a buffer-filled heating chamber maintained at 37° C. and two electrodes were placed into the bath for volume-conducted electrocardiogram recordings. Heart rate, left ventricular developed pressure (LVDP), maximal rates of contraction and relaxation (±dP/dt), oxygen consumption, and electrocardiograms (ECG) were recorded on a computer. After a ten-minute equilibration period, hearts were subjected to the following protocol: ten-minute baseline recording while the heart was perfused with control buffer, ten-minute recording while 0.25-μM ouabain with or without 1 μM CGP-37157, and sixty-minute recording while hearts were stimulated with 25-nM isoproterenol. The measurements of hemodynamic parameters were determined by taking the average during the last two minutes before ouabain treatment (baseline) and for two minutes during the maximal effect on LVDP of either ouabain or isoproterenol.
In Table 1A-1C, hemodynamics of isolated perfused hearts were recorded at baseline, with ouabain treatment (1 μM), and with ouabain plus isoproterenol (100 nM) stimulation with or without CGP-37157 (1 μM). HR, heart rate; LVDP, left ventricular developed pressure; Oua: ouabain; CGP: CGP-37157; VF: ventricular fibrillation. *p<0.05 compared to group without CGP; † p<0.05 compared to baseline.

The subject of experiment [5] is Guinea pig hearts. Put plainly: Oxygen consumption in isolated perfused hearts.
Excerpt: as §3
Cardiac O2 concentration was measured with an O2 probe attached to a PowerLab system (AD Instruments). The probe was calibrated with 95% O2-saturated buffer as 100% and 100% N2-saturated buffer as 0%. The molar concentration of O2 consumption was calculated from percentage concentration with the following equation: VO2(μmol/min/g dwt)=CF×(0.02373/22.414)×((760−p)/760)×(ΔO2%/100)/dwt
where CF is coronary flow (mL/min); 0.02373 is the absorption coefficient of O2 in H2O at 37° C.; 22.414 is the volume (L) of 1 mol gas at STP; 760 is 1 atm in mm Hg; p equals 47.067, which is the vapor pressure of H2O at 37° C.; ΔO2% is the difference in O2 percentage concentration between inflow buffer collected from cannula before heart was mounted and outflow buffer collected from pulmonary artery; dwt is dry heart weight.

The mark [6] stands for this setting: 25-nM isoproterenol in ouabain-treated hearts, absence (isoproterenol) or presence of CGP-37157.
The mark [7] stands for this setting: at baseline, group with CGP-37157.
The mark [8] stands for this setting: ouabain application, without or with CGP-37157.
[9] abbreviates: with ouabain treatment (1 μM, 0.25-μM), −CGP = ouabain alone, +CGP = plus CGP-37157 1 μM.
The mark [10] stands for this setting: with ouabain treatment and isoproterenol stimulation, −CGP without, +CGP with CGP-37157 1 μM.
The mark [11] stands for this setting: after ten minutes treatment of ouabain, without or with CGP-37157.

For `O=C1CSC(c2ccccc2Cl)c2cc(Cl)ccc2N1` (centres unmarked) [CGP-37157, 7-chloro-5-(2-chlorophenyl)-1,5-dihydro-4,1-benzothiazepin-2(3H)-one], the “incidence of DAD-triggered APs” value in experiment [1] was “not significantly different from controls”. In addition, the “amplitude of DADs” value in experiment [1] (ouabain plus CGP-37157 versus ouabain alone) is on record as “smaller amplitude than in ouabain alone”. Also, in experiment [2], the “diastolic [Ca2+]c before stimulation” value was 99 ± 14 nM, the “diastolic [Ca2+]c after three minutes of stimulation” value worked out at 370 ± 60 nM, the “increase of amplitude of [Ca2+]c transient (Δ[Ca2+]c) compared to control” value was found to be 74% and the “spontaneous Ca2+ oscillations / discordant contractions” value is recorded as “significantly reduced the incidence of discordant contractions”. In experiment [3] (1 μM CGP-37157 with 1-μM ouabain + 100-nM isoproterenol, 1-Hz stimulation), the “[Ca2+]m accumulation” value is “significantly enhanced [Ca^2+]m accumulation”. Moreover, in experiment [4] (setting [6]), the “increase of +dP/dt compared to the level with ouabain treatment” value is listed as 75%, the “increase of LVDP compared to the level with ouabain treatment” value was 30%, the “increase of heart rate (HR) compared to the level with ouabain treatment” value worked out at 23% and the “increase of −dP/dt compared to the level with ouabain treatment” value worked out at 53%. In experiment [4] (setting [7]), the “+dP/dt” value was 2326 ± 303, the HR was found to be 239.3 ± 8.0, the LVDP worked out at 91.9 ± 10.6 and the “−dP/dt” value is reported as −1872 ± 163. For the same compound, in experiment [4] (setting [8]), the “increase of +dP/dt compared to baseline” value is reported as “approximately 36%” and the “increase of −dP/dt compared to baseline” value is listed as “approximately 23%”. Further, in experiment [4] (setting [9]), the “+dP/dt” value is recorded as 3167 ± 481 †, the HR worked out at 250.0 ± 13.4, the LVDP is 100.7 ± 12.0 † and the “−dP/dt” value is recorded as −2306 ± 218 †. Also, in experiment [4] (setting [10]), the “+dP/dt” value is recorded as 5530 ± 736 † *, the HR is recorded as 306.7 ± 22.8 †, the LVDP is on record as 130.9 ± 18.4 † and the “−dP/dt” value is listed as −3518 ± 419 †. In experiment [5] (setting [11]), the “increase of whole-heart oxygen consumption (VO2) compared to baseline” value (from here on “increase … (VO2) compared to baseline”) is 32%. Moreover, in experiment [5] (ouabain followed by isoproterenol, without (isoproterenol) or with CGP-37157), the “increase … (VO2) compared to baseline” value came out at 53%.
Regarding `C[C@@H]1O[C@@H](O[C@H]2C[C@@H](O)[C@]3(CO)[C@H]4[C@H](O)C[C@]5(C)[C@@H](C6=CC(=O)OC6)CC[C@]5(O)[C@@H]4CC[C@]3(O)C2)[C@H](O)[C@H](O)[C@H]1O` [ouabain, 1β,3β,5β,11α,14,19-Hexahydroxycard-20(22)-enolide 3-(6-deoxy-α-L-mannopyranoside, reference compound], the “incidence of DAD-triggered APs” value in experiment [1] is recorded as “significant increase in the incidence of DAD-triggered APs”. In experiment [2], the “diastolic [Ca2+]c before stimulation” value worked out at 123 ± 9 nM; the “diastolic [Ca2+]c after three minutes of stimulation” value came to 750 ± 142 nM; the “increase of amplitude of [Ca2+]c transient (Δ[Ca2+]c) compared to control” value is listed as 112%; the “spontaneous Ca2+ oscillations / discordant contractions” value is “developed spontaneous Ca^2+ oscillations, extrasystolic contractions, and eventual hypercontracture”. In addition, the “increase of diastolic [Ca2+]m during 1-Hz stimulation” value in experiment [3] (1-μM ouabain + 100-nM isoproterenol) was below 10%. Further, in experiment [4] (setting [8]), the “increase of +dP/dt compared to baseline” value was 20%, the “increase of LVDP compared to baseline” value was 13% and the “increase of −dP/dt compared to baseline” value worked out at 4%. In addition, in experiment [4] (setting [9]), the “+dP/dt” value is on record as 2241 ± 376 †, the HR was found to be 246.3 ± 20.3, the LVDP is on record as 106.0 ± 17.0 † and the “−dP/dt” value is reported as −1855 ± 229 †. In addition, in experiment [4] (setting [10]), the “+dP/dt” value is given as 3529 ± 644 †, the HR is 315.3 ± 25.0 † and the LVDP was 100.4 ± 18.3. For the same compound, the “increase … (VO2) compared to baseline” value in experiment [5] (setting [11]) is 18%.

For the origin of these results see patent US8791079B2, “Methods for treating heart failure by inhibiting the mitochondrial sodium-calcium exchanger (mNCE)” (priority 2009, dated 2014).
